pIC50: −log10 of the molar value.
Each compound was assayed against human GSK3β (Homo sapiens, UniProt P49841) (assay: Screening for GSK3 inhibitory activity using a cell-free assay). Settings: read-out: IC50 with respect to GSK3.
Assay type: biochemical
In short: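 Radiometric cell-free assay with recombinant human GSK3β phosphorylating a biotinylated peptide substrate for 3 h. Reactions were stopped with 50 μM ATP/20 mM EDTA and captured on streptavidin plates. Incorporated radiolabel was counted by scintillation and plotted against compound concentration.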

Chain of human GSK3β (P49841 whole entry): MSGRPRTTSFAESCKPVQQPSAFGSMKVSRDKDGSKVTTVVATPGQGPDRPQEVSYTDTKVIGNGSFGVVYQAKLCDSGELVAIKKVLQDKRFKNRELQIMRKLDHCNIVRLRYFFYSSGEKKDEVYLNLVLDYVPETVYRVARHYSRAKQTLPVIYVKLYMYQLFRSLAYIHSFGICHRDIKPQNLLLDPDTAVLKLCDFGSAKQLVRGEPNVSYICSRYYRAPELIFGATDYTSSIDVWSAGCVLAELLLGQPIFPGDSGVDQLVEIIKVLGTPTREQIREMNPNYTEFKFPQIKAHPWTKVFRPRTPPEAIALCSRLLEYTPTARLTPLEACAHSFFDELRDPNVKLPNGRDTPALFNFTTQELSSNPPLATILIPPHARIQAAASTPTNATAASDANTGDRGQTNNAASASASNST

pIC50 | SMILES
≥ 5.00 | O=S(=O)(NCc1ccccc1)c1ccc(-c2ccnc(NCCNc3ccccn3)n2)cc1 [benzyl{[4-(2-{[2-(2-pyridylamino)ethyl]-amino}pyrimidin-4-yl)phenyl]sulfonyl}amine]
≥ 5.00 | CCOC(=O)c1cnc(NCCNc2ccc([N+](=O)[O-])cn2)nc1-c1cccc(F)c1 [ethyl 4-(3-fluorophenyl)-2-({2-[(5-nitro(2-pyridyl))amino]ethyl}amino)pyrimidine-5-carboxylate]
≥ 6.00 | CCOC(=O)c1cnc(NCCNc2cc(C)c([N+](=O)[O-])cn2)nc1-c1ccc(C#N)cc1 [ethyl 4-(4-cyanophenyl)-2-({2-[(4-methyl-5-nitro(2-pyridyl))amino]ethyl}amino)pyrimidine-5-carboxylate]
≥ 6.00 | CCOC(=O)c1cnc(NCCNc2ccc([N+](=O)[O-])cn2)nc1-c1ccc(F)c(F)c1 [ethyl 4-(3,4-difluorophenyl)-2-({2-[(5-nitro(2-pyridyl))amino]ethyl}amino)pyrimidine-5-carboxylate]
≥ 5.00 | CCOC(=O)c1c(CC)nc(NCCCNc2ccc([N+](=O)[O-])cn2)nc1-c1ccc(C(N)=O)cc1 [ethyl 4-(4-carbamoylphenyl)-6-ethyl-2-({3-[(5-nitro(2-pyridyl))amino]propyl}amino)pyrimidine-5-carboxylate]
≥ 5.00 | CCOC(=O)c1cnc(NCCNc2ccc([N+](=O)[O-])c(NC)n2)nc1-c1ccc(C#N)cc1 [ethyl 4-(4-cyanophenyl)-2-[(2-{[6-(methylamino)-5-nitro(2-pyridyl)]amino}ethyl)amino]pyrimidine-5-carboxylate]
≥ 6.00 | Nc1nc(NCCNc2ncc(-c3ccncc3)c(-c3ccc(Cl)cc3Cl)n2)ccc1[N+](=O)[O-] [{2-[(6-amino-5-nitro(2-pyridyl))amino]ethyl}[4-(2,4-dichlorophenyl)-5-(4-pyridyl)pyrimidin-2-yl]amine]
≥ 6.00 | CCOC(=O)c1cnc(NCCNc2ccc([N+](=O)[O-])cn2)nc1-c1ccc(C(F)(F)F)cc1 [ethyl 2-({2-[(5-nitro(2-pyridyl))amino]ethyl}amino)-4-[4-(trifluoromethyl)phenyl]pyrimidine-5-carboxylate]
≥ 6.00 | Cc1cc(Cl)ccc1-c1nc(NCCNc2ccc([N+](=O)[O-])c(N)n2)ncc1-c1ncc[nH]1 [{2-[(6-amino-5-nitro(2-pyridyl))amino]ethyl}[4-(4-chloro-2-methylphenyl)-5-imidazol-2-ylpyrimidin-2-yl]amine]
≥ 6.00 | CCOC(=O)c1cnc(NCCNc2ccc([N+](=O)[O-])cn2)nc1-c1ccc(OC)cc1 [ethyl 4-(4-methoxyphenyl)-2-({2-[(5-nitro(2-pyridyl))amino]ethyl}amino)pyrimidine-5-carboxylate]
≥ 5.00 | O=C(NCc1ccccc1)c1ccc(-c2ccnc(NCCNc3ccc([N+](=O)[O-])cn3)n2)cc1 [{4-[2-({2-[(5-nitro(2-pyridyl))amino]ethyl}amino)pyrimidin-4-yl]phenyl}-N-benzylcarboxamide]
≥ 6.00 | CCOC(=O)c1cnc(NCCNc2ccc([N+](=O)[O-])cn2)nc1-c1ccc(S(C)(=O)=O)cc1 [ethyl 4-[4-(methyl-sulfonyl)phenyl]-2-({2-[(5-nitro(2-pyridyl))amino]ethyl}amino)pyrimidine-5-carboxylate]
≥ 6.00 | Cc1c[nH]c(-c2cnc(NCCNc3ccc([N+](=O)[O-])c(N)n3)nc2-c2ccc(F)cc2Cl)n1 [{2-[(6-amino-5-nitro(2-pyridyl))amino]ethyl}[4-(2-chloro-4-fluorophenyl)-5-(4-methylimidazol-2-yl)pyrimidin-2-yl]amine]
≥ 5.00 | CCOC(=O)c1cnc(NCCNc2ccc([N+](=O)[O-])cn2)nc1-c1cccc([N+](=O)[O-])c1 [ethyl 2-({2-[(5-nitro(2-pyridyl))amino]ethyl}amino)-4-(3-nitrophenyl)pyrimidine-5-carboxylate]
≥ 5.00 | CCOC(=O)c1cnc(NCCNc2ccc([N+](=O)[O-])cn2)nc1Nc1ccc(Cl)cc1Cl [ethyl 4-[(2,4-dichlorophenyl)amino]-2-({2-[(5-nitro(2-pyridyl))amino]-ethyl}amino)pyrimidine-5-carboxylate]
≥ 6.00 | CCOC(=O)c1cnc(NCCNc2ccc([N+](=O)[O-])cn2)nc1-c1ccc(-n2cnnc2)cc1 [ethyl 2-({2-[(5-nitro(2-pyridyl))amino]ethyl}amino)-4-(4-(1,2,4-triazol-4-yl)phenyl)pyrimidine-5-carboxylate]
≥ 6.00 | Nc1cnc(NCCNc2ccc([N+](=O)[O-])c(N)n2)nc1-c1ccc(Cl)cc1Cl [[5-amino-4-(2,4-dichlorophenyl)pyrimidin-2-yl]{2-[(6-amino-5-nitro(2-pyridyl))amino]ethyl}amine]
≥ 5.00 | CCOC(=O)c1cnc(NCCNc2ncccn2)nc1-c1ccc(C#N)cc1 [ethyl 4-(4-cyanophenyl)-2-{[2-(pyrimidin-2-ylamino)ethyl]amino}pyrimidine-5-carboxylate]
≥ 5.00 | CCOC(=O)c1cnc(NCCc2ccccn2)nc1-c1ccc(OC)cc1 [ethyl 4-(4-methoxyphenyl)-2-[(2-(2-pyridyl)ethyl)amino]pyrimidine-5-carboxylate]
≥ 6.00 | CCOC(=O)c1cnc(NCCNc2ccc([N+](=O)[O-])c(N)n2)nc1-c1ccc(C#N)cc1 [ethyl 2-({2-[(6-amino-5-nitro(2-pyridyl))amino]ethyl}amino)-4-(4-cyanophenyl)pyrimidine-5-carboxylate]

More lines, now with the values behind:

SMILES | pIC50
NC(=O)c1ccc(-c2ccnc(NCc3cc(Cl)cc(Cl)c3)n2)cc1 [4-(2-{[(3,5-dichlorophenyl)methyl]amino}pyrimidin-4-yl)benzamide] | ≥ 5.00
COc1cccc(CNC(=O)c2ccc(-c3ccnc(NCCNc4ccc([N+](=O)[O-])cn4)n3)cc2)c1 [N-[(3-methoxyphenyl)methyl]{4-[2-({2-[(5-nitro(2-pyridyl))amino]ethyl}amino)pyrimidin-4-yl]phenyl}carboxamide] | ≥ 6.00
NC(=O)c1ccc(-c2ccnc(NCC(c3ccccc3)c3ccccc3)n2)cc1 [4-{2-[(2,2-diphenylethyl)amino]pyrimidin-4-yl}-benzamide] | ≥ 5.00
COc1ccc(OC)c(CCNc2nccc(-c3ccc(C#N)cc3)n2)c1 [4-(2-{[2-(2,5-dimethoxyphenyl)ethyl]amino}pyrimidin-4-yl)benzene-carbonitrile] | ≥ 5.00
N#Cc1cnc(NCCNc2ccc([N+](=O)[O-])cn2)nc1-c1ccc(Cl)cc1Cl [4-(2,4-dichlorophenyl)-2-({2-[(5-nitro(2-pyridyl))amino]-ethyl}amino)pyrimidine-5-carbonitrile] | ≥ 5.00
O=C(NCc1cccc(Br)c1)c1ccc(-c2ccnc(NCCNc3ccc([N+](=O)[O-])cc3)n2)cc1 [N-[(3-bromophenyl)-methyl]{4-[2-({2-[(4-nitrophenyl)amino]ethyl}amino)pyrimidin-4-yl]phenyl}carboxamide] | ≥ 5.00
CN(C)CCOC(=O)c1cnc(NCCNc2ccc([N+](=O)[O-])c(N)n2)nc1-c1ccc(C#N)cc1 | ≥ 6.00
N#Cc1ccc(-c2nc(NCCNc3ccc([N+](=O)[O-])cn3)ncc2C(=O)OCCN(CCO)CCO)cc1 | ≥ 6.00
N#Cc1ccc(-c2nc(NCCNc3ccc([N+](=O)[O-])cn3)ncc2C(=O)OCCO)cc1 [2-hydroxyethyl 4-(4-cyanophenyl)-2-({2-[(5-nitro(2-pyridyl))-amino]ethyl}amino)pyrimidine-5-carboxylate] | ≥ 6.00
CCCCNC(=O)c1cnc(NCCNc2ccc([N+](=O)[O-])cn2)nc1-c1ccc(C#N)cc1 [N-butyl[4-(4-cyanophenyl)-2-({2-[(5-nitro(2-pyridyl))amino]ethyl}amino)pyrimidin-5-yl]carboxamide] | ≥ 6.00
O=[N+]([O-])c1ccc(NCCNc2nccc(NCc3ccccc3)n2)nc1 [[2-({2-[(5-nitro(2-pyridyl))amino]ethyl}amino)pyrimidin-4-yl]benzylamine] | ≥ 5.00
NC(=O)c1ccc(-c2ccnc(NCc3ccc(Br)cc3)n2)cc1 [4-(2-{[(4-bromophenyl)methyl]amino}pyrimidin-4-yl)benzamide] | ≥ 5.00
N#Cc1cnc(NCCNc2ccc([N+](=O)[O-])c(N)n2)nc1-c1ccc(Cl)cc1Cl [2-({2-[(6-amino-5-nitro(2-pyridyl))amino]ethyl}amino)-4-(2,4-dichlorophenyl)pyrimidine-5-carbonitrile] | ≥ 6.00
COc1cccc(NCCNc2nccc(-c3ccc(C(=O)NCc4cccc(Br)c4)cc3)n2)n1 [N-[(3-bromophenyl)methyl]{4-[2-({2-[(6-methoxy(2-pyridyl))amino]ethyl}amino)pyrimidin-4-yl]phenyl}carboxamide] | ≥ 5.00
O=C(NCc1ccc(F)c(F)c1)c1ccc(-c2ccnc(NCCNc3ccc([N+](=O)[O-])cn3)n2)cc1 [N-[(3,4-difluorophenyl)methyl]{4-[2-({2-[(5-nitro(2-pyridyl))amino]ethyl}amino)pyrimidin-4-yl]phenyl}carboxamide] | ≥ 5.00
Cc1cccc(OCCCNc2nccc(-c3ccc(C(N)=O)cc3)n2)c1 [4-(2-{[3-(3-methylphenoxy)propyl]amino}pyrimidin-4-yl)benzamide] | ≥ 5.00
N#Cc1ccc(-c2nc(NCCNc3ccc([N+](=O)[O-])cn3)nc(-c3ccc([N+](=O)[O-])cc3)c2C(=O)O)cc1 [4-(4-cyanophenyl)-2-({2-[(5-nitro(2-pyridyl))-amino]ethyl}amino)-6-(4-nitrophenyl)pyrimidine-5-carboxylic acid] | ≥ 6.00
NC(=O)c1ccc(-c2ccnc(NCCCOc3ccc(Cl)c(Cl)c3)n2)cc1 [4-(2-{[3-(3,4-dichlorophenoxy)-propyl]amino}pyrimidin-4-yl)benzamide] | ≥ 5.00
NC(=O)c1ccc(-c2ccnc(NCCCNc3ccc([N+](=O)[O-])cn3)n2)cc1 [4-[2-({3-[(5-nitro-2-pyridyl)amino]propyl}amino)pyrimidin-4-yl]benzamide] | ≥ 6.00
CN(C)C(=O)c1cnc(NCCNc2ccc([N+](=O)[O-])cn2)nc1-c1ccc(C#N)cc1 [[4-(4-cyanophenyl)-2-({2-[(5-nitro(2-pyridyl))amino]ethyl}-amino)pyrimidin-5-yl]-N,N-dimethylcarboxamide] | ≥ 6.00

— patent US7425557B2, “Inhibitors of glycogen synthase kinase 3” (Novartis Vaccines and Diagnostics, Inc., priority 1998, dated 2008)
